Some test systems named below: 786-0 renal; ACHN renal; DU-145 prostate; IGROV1 ovarian; MALME-3M melanoma; MOLT-4 leukemia; SF-295 CNS; TK-10 renal; U251 CNS; HOP-92 NSCLC.
Common to all, as to assay: NCI anticancer screen, dose series, 48 h

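Each compound was tested at five concentrations against cells in 96-well plates for 48 hours. The concentration for 50% growth inhibition is given as GI50. TGI: total growth inhibition.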

Consider `N#Cc1ncn(-c2ccccc2)c1N`, for which the TGI in the experiment with 786-0 renal, in the experiment with ACHN renal, in the experiment with DU-145 prostate, in the experiment with IGROV1 ovarian, in the experiment on MALME-3M melanoma and in the experiment on MOLT-4 leukemia was over 100 µM each time. Moreover, the TGI with SF-295 CNS, in the experiment with TK-10 renal and in the experiment with U251 CNS was over 100 µM throughout.

As to `CCOC(=O)C1(Cc2ccccc2)Cc2cc3c(cc2C1)CCC3`, the TGI in the experiment on 786-0 renal is over 100 µM; in the experiment on ACHN renal, over 100 µM; in the experiment with DU-145 prostate, over 100 µM; in the experiment on IGROV1 ovarian, over 100 µM; in the experiment with MALME-3M melanoma, over 100 µM; in the experiment on MOLT-4 leukemia, 58.6 µM. In addition, the TGI with SF-295 CNS is 85.8 µM; with TK-10 renal, over 100 µM; with U251 CNS, over 100 µM.

In the case of `CC(=O)OCC1OC(Nc2ccc3nc(C)n(-c4cccc(C)c4)c(=O)c3c2)C(OC(C)=O)C(OC(C)=O)C1OC(C)=O` (configuration not stated), the TGI in the experiment on 786-0 renal, in the experiment on ACHN renal, with DU-145 prostate, in the experiment with IGROV1 ovarian, in the experiment with MALME-3M melanoma and in the experiment with MOLT-4 leukemia was over 62.5 µM throughout. The TGI in the experiment with SF-295 CNS, in the experiment on TK-10 renal and in the experiment on U251 CNS was over 62.5 µM throughout.

Consider `CC(=O)O[C@H]1C(=O)[C@@]2(C)C([C@H](OC(=O)c3ccccc3)[C@]3(O)C[C@H](OC(=O)[C@H](O)[C@H](NC(=O)c4ccccc4)c4ccc(Cl)cc4)C(C)=C1C3(C)C)C1(OC(C)=O)CO[C@@H]1C[C@@H]2O` (some centres not stated), for which the TGI in the experiment on 786-0 renal was 28.1 µM; in the experiment on ACHN renal, over 100 µM; in the experiment on MALME-3M melanoma, 26.3 µM; in the experiment on MOLT-4 leukemia, 2.36 µM; in the experiment with TK-10 renal, 14.4 µM. The GI50 with ACHN renal is 1.66 µM; in the experiment with SF-295 CNS, 0.0167 µM; in the experiment with TK-10 renal, 0.0171 µM.

With `O=C1C=C(N2CCCC2)C=C(N2CCCC2)C1`, the TGI in the experiment on 786-0 renal, in the experiment with ACHN renal, with HOP-92 NSCLC, in the experiment on IGROV1 ovarian, with MALME-3M melanoma and in the experiment with MOLT-4 leukemia was over 100 µM each time. Moreover, the TGI in the experiment with SF-295 CNS, in the experiment on TK-10 renal and in the experiment on U251 CNS was over 100 µM each time.

With `O=C(Cc1ccccc1)NN1C(=O)C(Cl)C1c1cccc(O)c1` (configuration not stated), the TGI worked out at 31.5 µM in the experiment on 786-0 renal; 31 µM in the experiment on ACHN renal; 34.8 µM in the experiment on IGROV1 ovarian; 76.3 µM with MALME-3M melanoma; 31.6 µM in the experiment with MOLT-4 leukemia; 40.4 µM with SF-295 CNS. Moreover, the TGI in the experiment on TK-10 renal stood at 34.1 µM; in the experiment on U251 CNS, 24.4 µM.

Take `CCN(CC)CCNC(=O)c1ccc([N+](=O)[O-])cc1OC`: the TGI in the experiment on 786-0 renal, in the experiment with ACHN renal, with HOP-92 NSCLC, in the experiment on IGROV1 ovarian, in the experiment with MALME-3M melanoma and with MOLT-4 leukemia was over 100 µM in each case. Also, the TGI in the experiment on SF-295 CNS, in the experiment on TK-10 renal and in the experiment on U251 CNS was over 100 µM each time.

`COc1cc([C@@H]2c3cc4c(cc3[C@H](OC3OC5COC(C(C)C)OC5C(O)C3O)C3COC(=O)[C@@H]32)OCO4)cc(OC)c1O` (some centres not stated): the TGI with 786-0 renal is 22.1 µM; in the experiment on ACHN renal, 15.6 µM; in the experiment on HOP-92 NSCLC, 27.5 µM; in the experiment with IGROV1 ovarian, 21.8 µM; in the experiment with MALME-3M melanoma, 36 µM; in the experiment with MOLT-4 leukemia it was over 100 µM. Further, the TGI with SF-295 CNS was found to be 21.7 µM; in the experiment with TK-10 renal it was 93.5 µM; in the experiment on U251 CNS, 10.5 µM.

Consider `CC(O)c1c2c(cc3c1CC1(C3)Cc3cc4c(c(C(C)O)c3C1)CCC4)CCC2` (configuration not stated), for which the TGI was 28.9 µM in the experiment with 786-0 renal; 31.4 µM in the experiment with ACHN renal; 31.6 µM with HOP-92 NSCLC; 42.3 µM in the experiment on IGROV1 ovarian; 34.5 µM in the experiment with MALME-3M melanoma; 26.3 µM in the experiment on MOLT-4 leukemia. For the same compound, the TGI with SF-295 CNS worked out at 45.2 µM; in the experiment with TK-10 renal, 69.7 µM; in the experiment with U251 CNS, 29.3 µM.

On to `Cc1c(NC(=O)C(=O)N=NC(=O)c2ccncc2)c(O)c2ccccc2c1O`, for which the TGI in the experiment with 786-0 renal is 59.2 µM; in the experiment on ACHN renal, 29.6 µM; in the experiment on HOP-92 NSCLC, 33.5 µM; with IGROV1 ovarian, 28.5 µM; in the experiment on MALME-3M melanoma, 16.4 µM; in the experiment with MOLT-4 leukemia it was over 77.8 µM. Moreover, the TGI was 23.3 µM with SF-295 CNS, over 100 µM with TK-10 renal and 28.1 µM in the experiment on U251 CNS.

As for `FC(F)(F)P1C2C=CC(CC2)C1(F)F` (configuration not stated), the TGI in the experiment on 786-0 renal, with ACHN renal, with IGROV1 ovarian, with MALME-3M melanoma, in the experiment on MOLT-4 leukemia and in the experiment with SF-295 CNS was over 100 µM in each case. Further, the TGI with TK-10 renal and in the experiment with U251 CNS was over 100 µM in each case.

Regarding `COc1ccc2c(c1)c1nn(CCN(C)C)c3ccc4c(=O)n(CCN(C)C)c(=O)n2c4c13`, the TGI came out at 0.136 µM with 786-0 renal; 0.432 µM in the experiment on ACHN renal; 0.603 µM in the experiment on DU-145 prostate; 1.65 µM with IGROV1 ovarian; 0.555 µM in the experiment with MALME-3M melanoma; 0.197 µM in the experiment with MOLT-4 leukemia. The figures for the TGI in the experiment with SF-295 CNS, in the experiment on TK-10 renal and in the experiment on U251 CNS were 0.224 µM, 0.696 µM and 1.69 µM, respectively.

Take `CC(=O)Nc1ccc(Nc2cc(=O)n(C)c(=O)[nH]2)cc1`: the TGI in the experiment with 786-0 renal, in the experiment with ACHN renal, in the experiment on HOP-92 NSCLC, in the experiment on IGROV1 ovarian, with MALME-3M melanoma and in the experiment on MOLT-4 leukemia was over 100 µM each time. Also, the TGI with SF-295 CNS, with TK-10 renal and in the experiment on U251 CNS was over 100 µM each time.

With `COC(=O)C1Cc2ccc(C)cc2C1=O` (configuration not stated), the TGI with 786-0 renal, with ACHN renal, with DU-145 prostate, in the experiment on IGROV1 ovarian, in the experiment with MALME-3M melanoma and with MOLT-4 leukemia was over 100 µM in each case. Further, the TGI with SF-295 CNS, in the experiment with TK-10 renal and in the experiment on U251 CNS was over 100 µM in each case.

For `CN(C)CCOc1ccc(I)cc1Cc1ccccc1`, the TGI with 786-0 renal amounted to 23 µM; in the experiment with ACHN renal it was 24.7 µM; in the experiment on DU-145 prostate it was 31.6 µM; in the experiment with IGROV1 ovarian, 17.4 µM; in the experiment on MALME-3M melanoma, 29.9 µM; with MOLT-4 leukemia it was 20.2 µM. Besides, the figures for the TGI in the experiment with SF-295 CNS, in the experiment with TK-10 renal and with U251 CNS were 30.1 µM, 25.5 µM and 27.1 µM, respectively.

`CCOc1ccc(N2C(=O)C3c4[nH]c5ccccc5c4C4CCC(C(C)(C)C)CC4C3C2=O)cc1` (configuration not stated): the TGI with 786-0 renal, in the experiment on ACHN renal, with HOP-92 NSCLC, in the experiment with IGROV1 ovarian, in the experiment on MALME-3M melanoma and with MOLT-4 leukemia was over 100 µM throughout. Besides, the TGI in the experiment on SF-295 CNS and with U251 CNS was over 100 µM in each case.

As for `Cc1c(C(=O)CSc2nc3ccc([N+](=O)[O-])cc3[nH]2)c(=O)n(-c2ccccc2)n1C`, the TGI in the experiment on 786-0 renal, in the experiment with ACHN renal, with HOP-92 NSCLC, with IGROV1 ovarian, in the experiment with MALME-3M melanoma and with MOLT-4 leukemia was over 100 µM throughout. Moreover, the TGI with SF-295 CNS, in the experiment with TK-10 renal and in the experiment with U251 CNS was over 100 µM in each case.

For the compound `O=C(O)C(Cc1ccc2c(c1)CCC2)(Cc1ccc2c(c1)CCC2)C(=O)O`, the TGI with 786-0 renal, in the experiment on ACHN renal, with DU-145 prostate, with IGROV1 ovarian, in the experiment with MALME-3M melanoma and with MOLT-4 leukemia was over 100 µM in each case. Further, the TGI in the experiment on SF-295 CNS, with TK-10 renal and with U251 CNS was over 100 µM throughout.

In the case of `CNNC1=NS(=O)(=O)c2cc(C)c(Cl)cc2S1`, the TGI in the experiment with 786-0 renal, in the experiment on ACHN renal, with DU-145 prostate, with IGROV1 ovarian, in the experiment with MALME-3M melanoma and in the experiment with MOLT-4 leukemia was over 10 µM throughout. The TGI in the experiment with SF-295 CNS, in the experiment on TK-10 renal and in the experiment on U251 CNS was over 10 µM throughout.

On to `COc1cc(C2C(Cl)C(=O)N2n2cnc3ccccc3c2=O)cc(OC)c1OC` (configuration not stated), for which the TGI with 786-0 renal, in the experiment with ACHN renal, with IGROV1 ovarian, with MALME-3M melanoma, with MOLT-4 leukemia and in the experiment on SF-295 CNS was over 100 µM each time. For the same compound, the TGI in the experiment with TK-10 renal and with U251 CNS was over 100 µM each time.

For the compound `O=C(O)C(CS)NCc1c2ccccc2[n+]([O-])c2ccccc12` (configuration not stated), the TGI was over 100 µM in the experiment with 786-0 renal; over 100 µM with ACHN renal; 46.5 µM with HOP-92 NSCLC; over 100 µM in the experiment on IGROV1 ovarian; over 100 µM in the experiment on MALME-3M melanoma; 78.9 µM in the experiment on MOLT-4 leukemia. In addition, the TGI in the experiment on SF-295 CNS, with TK-10 renal and in the experiment with U251 CNS was over 100 µM each time.

For `ClC(Cl)(Cl)C1CCOC1n1nc2ccccc2n1` (configuration not stated), the TGI with 786-0 renal, with DU-145 prostate, in the experiment on IGROV1 ovarian, with MALME-3M melanoma, in the experiment on MOLT-4 leukemia and with SF-295 CNS was over 100 µM each time. Moreover, the TGI in the experiment on TK-10 renal and in the experiment on U251 CNS was over 100 µM each time.
